Measurements from ChEMBL document CHEMBL5715954, “Silencing c-Myc translation as a therapeutic strategy through targeting PI3Kδ and CK1ε in hematological malignancies” (Blood, 2017).

Tests used:
Design in all cases: scale not given: the % may be the effect or the level left
[1] = biological target: Protein-tyrosine kinase 6 (Homo sapiens) (UniProt Q13882); assay: Inhibition of human BRK assessed as enzyme activity at 1 uM using poly[Glu:Tyr] (4:1) as substrate preincubated for 20 mins followed by [gamma-33P]-ATP addition and measured after 120 mins by radiometric Hot-SpotSM Kinase assay relative to control
Homo sapiens = species on record: Homo sapiens; assay: Inhibition of human PKA assessed as enzyme activity at 1 uM using LCGRTGRRNSI as substrate preincubated for 20 mins followed by [gamma-33P]-ATP addition and measured after 120 mins by radiometric Hot-SpotSM Kinase assay relative to control
[2] = biological target: Serine/threonine-protein kinase N1 (Homo sapiens) (UniProt Q16512); assay: Inhibition of human PKN1 assessed as enzyme activity at 1 uM using KKLNRTLSVA as substrate preincubated for 20 mins followed by [gamma-33P]-ATP addition and measured after 120 mins by radiometric Hot-SpotSM Kinase assay relative to control
[3] = biological target: Serine/threonine-protein kinase MARK2 (Homo sapiens) (UniProt Q7KZI7); assay: Inhibition of human PAR-1Ba assessed as enzyme activity at 1 uM using KKKVSRSGLYRSPSMPENLNRPR as substrate preincubated for 20 mins followed by [gamma-33P]-ATP addition and measured after 120 mins by radiometric Hot-SpotSM Kinase assay relative to control
[4] = biological target: T1, Ephrin type-A receptor 8 (Homo sapiens) (UniProt P29322); assay: Inhibition of human EPHA8 assessed as enzyme activity at 1 uM using poly[Glu:Tyr] (4:1) as substrate preincubated for 20 mins followed by [gamma-33P]-ATP addition and measured after 120 mins by radiometric Hot-SpotSM Kinase assay relative to control
T1 sequence (whole entry): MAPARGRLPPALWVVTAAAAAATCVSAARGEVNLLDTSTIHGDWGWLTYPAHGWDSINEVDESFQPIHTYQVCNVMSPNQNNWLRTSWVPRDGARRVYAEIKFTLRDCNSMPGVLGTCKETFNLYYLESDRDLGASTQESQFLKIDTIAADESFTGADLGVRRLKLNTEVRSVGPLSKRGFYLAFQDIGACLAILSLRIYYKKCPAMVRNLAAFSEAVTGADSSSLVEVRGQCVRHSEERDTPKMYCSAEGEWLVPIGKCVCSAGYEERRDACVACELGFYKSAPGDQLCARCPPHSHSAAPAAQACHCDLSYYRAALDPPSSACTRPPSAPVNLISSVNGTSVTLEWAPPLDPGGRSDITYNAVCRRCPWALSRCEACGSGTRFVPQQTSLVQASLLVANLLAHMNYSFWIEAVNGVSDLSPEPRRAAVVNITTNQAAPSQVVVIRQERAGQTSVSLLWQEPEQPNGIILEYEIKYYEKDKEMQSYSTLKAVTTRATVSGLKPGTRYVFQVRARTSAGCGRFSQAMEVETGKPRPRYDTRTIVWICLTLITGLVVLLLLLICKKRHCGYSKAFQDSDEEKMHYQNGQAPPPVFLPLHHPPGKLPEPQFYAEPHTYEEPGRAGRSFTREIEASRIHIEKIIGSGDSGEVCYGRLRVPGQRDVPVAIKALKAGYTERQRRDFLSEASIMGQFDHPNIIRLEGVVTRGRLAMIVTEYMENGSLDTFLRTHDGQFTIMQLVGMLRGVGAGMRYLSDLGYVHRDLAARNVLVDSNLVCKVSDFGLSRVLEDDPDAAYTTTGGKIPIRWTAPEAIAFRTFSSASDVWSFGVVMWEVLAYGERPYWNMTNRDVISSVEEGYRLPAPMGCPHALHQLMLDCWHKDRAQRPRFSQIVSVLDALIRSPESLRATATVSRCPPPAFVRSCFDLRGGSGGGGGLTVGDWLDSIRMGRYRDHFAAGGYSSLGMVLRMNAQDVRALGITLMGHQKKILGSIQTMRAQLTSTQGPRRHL

[5] = biological target: T2, G protein-coupled receptor kinase 3 (Homo sapiens) (UniProt P35626); assay: Inhibition of human GRK3 assessed as enzyme activity at 1 uM using casein as substrate preincubated for 20 mins followed by [gamma-33P]-ATP addition and measured after 120 mins by radiometric Hot-SpotSM Kinase assay relative to control
T2 sequence (whole entry): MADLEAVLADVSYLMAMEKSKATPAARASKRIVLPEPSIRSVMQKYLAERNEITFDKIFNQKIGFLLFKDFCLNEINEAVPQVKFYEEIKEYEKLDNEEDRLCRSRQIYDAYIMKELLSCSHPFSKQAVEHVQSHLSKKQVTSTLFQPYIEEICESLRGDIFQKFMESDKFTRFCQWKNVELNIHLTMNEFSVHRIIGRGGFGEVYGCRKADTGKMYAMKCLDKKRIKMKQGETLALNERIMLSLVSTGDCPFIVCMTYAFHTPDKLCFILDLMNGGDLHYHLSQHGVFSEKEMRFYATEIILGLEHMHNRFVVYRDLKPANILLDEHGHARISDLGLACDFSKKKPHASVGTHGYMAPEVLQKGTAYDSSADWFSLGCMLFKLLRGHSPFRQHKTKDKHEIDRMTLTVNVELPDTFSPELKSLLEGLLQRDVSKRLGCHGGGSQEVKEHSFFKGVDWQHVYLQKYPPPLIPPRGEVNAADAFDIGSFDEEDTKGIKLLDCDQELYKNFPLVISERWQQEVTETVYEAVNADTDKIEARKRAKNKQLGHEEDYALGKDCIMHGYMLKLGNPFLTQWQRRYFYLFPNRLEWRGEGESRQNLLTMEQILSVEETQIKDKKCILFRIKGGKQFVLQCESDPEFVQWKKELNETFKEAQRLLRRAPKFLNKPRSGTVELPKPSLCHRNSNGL

Sequence of Serine/threonine-protein kinase N1 (Homo sapiens) (Q16512 2-942 limits assumed): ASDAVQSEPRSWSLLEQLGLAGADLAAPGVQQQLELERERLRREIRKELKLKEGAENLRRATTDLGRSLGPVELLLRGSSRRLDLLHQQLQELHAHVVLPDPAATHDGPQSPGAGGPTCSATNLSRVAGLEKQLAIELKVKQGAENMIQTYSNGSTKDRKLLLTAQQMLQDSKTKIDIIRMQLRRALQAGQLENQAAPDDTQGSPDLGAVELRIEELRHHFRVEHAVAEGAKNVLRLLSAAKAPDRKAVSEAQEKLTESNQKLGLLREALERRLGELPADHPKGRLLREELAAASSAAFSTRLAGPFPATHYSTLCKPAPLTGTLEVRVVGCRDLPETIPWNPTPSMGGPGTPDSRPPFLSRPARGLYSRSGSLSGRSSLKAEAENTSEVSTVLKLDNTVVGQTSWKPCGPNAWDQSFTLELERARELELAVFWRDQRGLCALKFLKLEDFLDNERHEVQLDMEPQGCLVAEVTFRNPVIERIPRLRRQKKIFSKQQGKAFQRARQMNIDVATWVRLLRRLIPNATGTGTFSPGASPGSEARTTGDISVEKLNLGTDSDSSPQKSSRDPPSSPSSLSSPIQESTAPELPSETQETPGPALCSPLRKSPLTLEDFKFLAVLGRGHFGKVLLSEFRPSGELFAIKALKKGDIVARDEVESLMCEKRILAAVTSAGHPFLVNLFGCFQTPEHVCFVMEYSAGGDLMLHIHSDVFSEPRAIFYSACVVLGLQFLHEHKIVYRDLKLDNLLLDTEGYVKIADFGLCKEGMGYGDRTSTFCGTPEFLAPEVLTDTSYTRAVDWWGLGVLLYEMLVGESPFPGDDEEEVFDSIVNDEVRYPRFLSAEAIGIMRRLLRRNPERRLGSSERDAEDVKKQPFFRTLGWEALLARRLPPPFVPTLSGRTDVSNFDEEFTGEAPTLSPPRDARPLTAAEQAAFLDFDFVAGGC
Sequence of Serine/threonine-protein kinase MARK2 (Homo sapiens) (Q7KZI7 whole entry): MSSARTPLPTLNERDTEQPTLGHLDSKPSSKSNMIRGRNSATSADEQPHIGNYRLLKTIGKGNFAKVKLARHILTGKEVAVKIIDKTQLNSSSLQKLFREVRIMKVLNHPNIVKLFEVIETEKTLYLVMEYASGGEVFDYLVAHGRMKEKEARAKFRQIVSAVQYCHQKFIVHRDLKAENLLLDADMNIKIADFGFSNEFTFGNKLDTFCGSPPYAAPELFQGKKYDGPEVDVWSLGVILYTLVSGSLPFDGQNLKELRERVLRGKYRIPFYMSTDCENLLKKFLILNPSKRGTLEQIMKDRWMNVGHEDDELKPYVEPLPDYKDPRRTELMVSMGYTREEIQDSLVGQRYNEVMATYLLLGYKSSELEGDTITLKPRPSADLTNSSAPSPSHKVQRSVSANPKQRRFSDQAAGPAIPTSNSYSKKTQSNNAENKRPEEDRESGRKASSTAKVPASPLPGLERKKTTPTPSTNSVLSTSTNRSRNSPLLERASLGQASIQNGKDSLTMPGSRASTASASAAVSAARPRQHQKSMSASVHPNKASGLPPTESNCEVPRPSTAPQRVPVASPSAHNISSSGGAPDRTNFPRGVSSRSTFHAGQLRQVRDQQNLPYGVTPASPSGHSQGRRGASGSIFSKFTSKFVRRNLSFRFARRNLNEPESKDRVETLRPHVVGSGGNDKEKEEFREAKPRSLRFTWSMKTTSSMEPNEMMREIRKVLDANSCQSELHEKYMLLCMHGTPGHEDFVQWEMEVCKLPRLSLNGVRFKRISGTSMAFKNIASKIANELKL
Sequence of Protein-tyrosine kinase 6 (Homo sapiens) (Q13882 whole entry, looked up): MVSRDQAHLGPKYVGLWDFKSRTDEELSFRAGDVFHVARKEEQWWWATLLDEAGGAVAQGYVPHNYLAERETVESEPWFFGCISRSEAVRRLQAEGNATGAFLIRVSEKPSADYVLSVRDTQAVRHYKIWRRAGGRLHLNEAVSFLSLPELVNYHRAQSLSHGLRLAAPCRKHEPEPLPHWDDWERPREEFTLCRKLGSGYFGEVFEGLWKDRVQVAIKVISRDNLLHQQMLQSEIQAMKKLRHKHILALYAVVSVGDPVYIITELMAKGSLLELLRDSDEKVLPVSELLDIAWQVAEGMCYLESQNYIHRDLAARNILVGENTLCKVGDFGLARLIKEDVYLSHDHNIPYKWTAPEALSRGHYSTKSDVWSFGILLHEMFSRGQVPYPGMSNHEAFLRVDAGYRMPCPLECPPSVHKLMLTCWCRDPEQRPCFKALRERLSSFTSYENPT

Compound	Activity [1] [%]	Activity (Homo sapiens) [%]	Activity [2] [%]	Activity [3] [%]	Activity [4] [%]	Activity [5] [%]
CC[C@H](Nc1ncnc2[nH]cnc12)c1nc2cccc(F)c2c(=O)n1-c1ccccc1	97.6	102	90.5	94.3	97.6	95.3
CC(C)Oc1ccc(-c2nn([C@@H](C)c3oc4ccc(F)cc4c(=O)c3-c3cccc(F)c3)c3ncnc(N)c23)cc1F [UMBRALISIB]	97.9	91.4	92.8	99.7	95.8	99.6
C[C@H](Nc1ncnc2nc[nH]c12)c1cc2cccc(Cl)c2c(=O)n1-c1ccccc1	98.3	95.5	84	95.8	99.1	91.5
